{"source": "patent US10004718B2", "about": "“Erythropoietin expression promoter” (TOHOKU UNIVERSITY, priority 2012, dated 2018)", "key": {"HIF-α": {"tested_on": "HIF-α", "assay": "HIF-α concentration in Hep3B cells (Total HIF-1α Cell-Based ELISA)", "parameters": "species or system human", "settings": "compound 10 μM, 20% O2, 24 hours", "protocol": "The Hep3B cells were seeded at 1×10^4 cells/well to a 24-well cell culture plate and then cultured under normal oxygen (20% O2) for 24 hours. Each of 3 types of compounds (compounds #4, 21, and 35) was mixed at a concentration of 10 μM into RPMI1640 common medium 1. After further culture under normal oxygen (20% O2) for 24 hours, the concentration of HIF-α produced in the medium was measured using Total HIF-1 α Cell-Based ELISA Kit (manufactured by R&D Systems, Inc.). Hep3B cells cultured in the absence of the compound (DMSO added [1%]) (“Control” of FIG. 5) were used as a negative control. Hep3B cells cultured in the presence of HIF activators (FG-4592 [10 μM], DMOG [10 μM], and ciclopirox[10 μM]) (“FG”, “DMOG”, and “Ciclo”, respectively, of FIG. 5) were used as positive controls."}, "erythropoietin": {"tested_on": "erythropoietin", "assay": "Erythropoietin production in vivo in mice, oral administration for 7 days", "parameters": "species or system mouse", "settings": "7 consecutive days, plasma 24 hours after final administration, vs corn oil, DMSO+corn oil or no administration", "protocol": "A mixed solution (200 μl) of each of 4 types of compounds (compounds #4, 5, 21, and 35) (10 mg/100 μl of DMSO) (10 μl) and corn oil (190 μl) was prepared. This mixed solution (200 μl) was orally administered to each mouse (C57BL/6N 8 W, male, 21-25 g) between 15:00 to 18:00 every day using a sonde. This administration was carried out for 7 consecutive days. Mice orally given corn oil or DMSO and corn oil as well as non-administered mice were used as controls.\n24 hours after the final administration, each mouse was cervically dislocated, and 500 μl of blood was collected from the heart. Then, an anticoagulant (10 μl of heparin) was added thereto, and the resulting blood was centrifuged (12000 rpm×20 min, 4° C.) to isolate plasma. The plasma concentration […] of erythropoietin was measured using a kit (Quantikine Mouse/Rat Epo Immunoassay, manufactured by R&D Systems, Inc.)."}, "Leigh cells": {"tested_on": "Leigh cells", "assay": "Cell death caused by oxidative stress (BSO) in Leigh syndrome patient fibroblasts", "type": "cell-based, human", "settings": "compound 10 μM, 4 days after BSO treatment", "protocol": "In Examples 2 to 7 and Reference Example 1 below, an erythropoietin-producing human hepatocellular carcinoma cell Hep3B (obtained from ATCC [American Type Culture Collection]) was cultured and maintained under conditions of 5% CO2/20% O2 and 37° C. in an RPMI1640 (manufactured by Life Technologies, Inc./GIBCO) medium containing 100 U/mL penicillin (manufactured by Life Technologies, Inc./GIBCO), 100 μg/mL streptomycin (manufactured by Life Technologies, Inc./GIBCO), and 10% fetal bovine serum (FBS) (manufactured by Life Technologies, Inc./GIBCO) (hereinafter, referred to as “RPMI1640 common medium 1”). In Example 15 below, Leigh syndrome patients were subjected to skin biopsy to obtain skin fibroblast cells, which were then primarily cultured under conditions of 5% CO2/20% O2 and 37° C. in a DMEM low glucose (manufactured by Life Technologies, Inc./GIBCO) medium containing 100 U/mL penicillin (manufactured by Life Technologies, Inc./GIBCO), 100 μg/mL streptomycin (manufactured by Life Technologies, Inc./GIBCO), and 1% FBS (manufactured by Life Technologies, Inc./GIBCO) (hereinafter, referred to as “DMEM low glucose common medium”) to isolate cells (Leigh cells). In Example 13 below, a human kidney-derived cell line HK-2 (obtained from ATCC) was cultured and maintained under conditions of 5% CO2/20% O2 and 37° C. in a DMEM/F12 (manufactured by Life Technologies, Inc./GIBCO) medium containing 100 U/mL penicillin (manufactured by Life Technologies, Inc./GIBCO), 100 μg/mL streptomycin (manufactured by Life Technologies, Inc./GIBCO), and 10% fetal bovine serum (manufactured by Life Technologies, Inc./GIBCO) (hereinafter, referred to as “DMEM/F12 common medium”). In Example 14 below, a rat islet of Langerhans-derived cell line ISN-1e (kindly provided by Hisamitsu Ishihara, Nihon University School of Medicine) was cultured and maintained under conditions of 5% CO2/20% O2 and 37° C. in an RPMI1640 (manufactured by Life Technologies, Inc./GIBCO) medium containing 10 mM HEPES (manufactured by Sigma-Aldrich Corp.), 2 mM glutamine (manufactured by Sigma-Aldrich Corp.), 50 μM β-mercaptoethanol (manufactured by Sigma-Aldrich Corp.), 100 U/mL penicillin (manufactured by Life Technologies, Inc./GIBCO), 100 μg/mL streptomycin (manufactured by Life Technologies, Inc./GIBCO), and 10% FBS (manufactured by Life Technologies, Inc./GIBCO) (hereinafter, referred to as “RPMI1640 common medium 2”).\nThe Leigh cells were seeded at 4×10^4 cells/well to a 24-well cell culture plate and then cultured for 24 hours. The glutathione synthesis inhibitor BSO (L-buthionine sulphoximine) (manufactured by Sigma-Aldrich Corp.) was mixed at […] into a medium. After culture for 24 hours in the presence of BSO, each of 5 types of compounds (compounds #2, 4, 5, 21, and 35) was mixed at 10 μM into the medium. After culture for 4 days in the presence of these 5 types of compounds, the number of live cells was measured using Cell Counting Kit-8 (manufactured by Dojindo Laboratories) to calculate the survival rate of the cells (“BSO+#2”, “BSO+#4”, “BSO+#5”, “BSO+#21”, and “BSO+#35” of FIG. 17). […]"}, "[1]": {"tested_on": "MCA (middle cerebral artery) occlusion mouse models", "assay": "Cerebral ischemic injury, MCA occlusion mouse model (TTC staining)", "type": "in vivo", "settings": "40 mg/kg intraperitoneal 4 hours before ischemia, 24 hours after reperfusion, vs DMSO, n=1", "protocol": "Two types of compounds (compounds #4 and 35) (40 mg/kg of mouse body weight) were each intraperitoneally administered to a mouse 4 hours before ischemia (n=1). A vehicle (DMSO) was administered to a control (n=1). Anesthesia was induced in each mouse with 4% halothane and oxygen and maintained by the intraperitoneal administration of ketamine (40 mg/kg) and xylazine (4 mg/kg) at 30-minute intervals. After the induction of systemic anesthesia, bifurcation of the common carotid artery was exposed under a microscope. A 6-0 nylon thread having a silicon-coated tip was inserted from the internal carotid artery toward the central side so that its tip reached the anterior communicating artery. The common carotid artery was further ligated to block blood flow into the middle cerebral artery. After the ischemic burden for 30 minutes, the nylon thread was removed so that the ligated common carotid artery was released to induce reperfusion.\n24 hours after the reperfusion, each mouse was cervically dislocated and then decapitated to excise the brain. Five coronal sections of the cerebrum having a thickness of 2 mm were prepared from the boundary between the cerebrum and the cerebellum. The coronal sections of the cerebrum were stained with TCC through a reaction at 37° C. for 20 minutes with a TTC solution diluted to 1.5% with PBS. […]"}}, "data": [{"compound": "COc1cc(COc2ccc3[nH]cc(CC(=O)O)c3c2)cc(OC)c1", "note": "[compound #35, 5-(3,5-Dimethoxybenzyloxy)-3-indoleacetic acid]", "values": [{"measurement": "HIF-α concentration in the Hep3B cells", "setting": "HIF-α", "value": "increase the HIF-α concentration"}, {"measurement": "amount of erythropoietin in the mouse blood", "setting": "erythropoietin", "value": "increased"}, {"measurement": "cell death of the Leigh cells by BSO", "setting": "Leigh cells", "value": "efficiently suppress the cell death"}, {"measurement": "volume of the cerebral infarction site", "setting": "[1]", "value": "decreased"}]}]}
